Data taken from patent US20220304950A1, “[…] THE TREATMENT OF PATIENTS WITH MAJOR DEPRESSIVE DISORDER, INCLUDING SUICIDALITY” (JANSSEN PHARMACEUTICALS, INC., priority 2019, published 2022).

Tested on: adult patients with MDD assessed to be at imminent risk for suicide
Assay: MADRS total score, Study 2 (Example 5)
Format: in vivo, human
Settings: 24 hours post first dose
Source text: The primary efficacy evaluation will be the MADRS total score. The MADRS will be performed using the Structured Interview Guide for the Montgomery Asberg Depression Rating Scale. The MADRS is a clinician-rated scale designed to be used in subjects with MDD to measure depression severity and detect changes due to antidepressant treatment. The test consists of 10 items, each of which is scored from 0 (item not present or normal) to 6 (severe or continuous presence of the symptoms), for a total possible score of 60. Higher scores represent a more severe condition. The MADRS evaluates apparent sadness, reported sadness, inner tension, sleep, appetite, concentration, lassitude, interest level, pessimistic thoughts, and suicidal thoughts.
The typical recall period for the MADRS is 7 days. In this study, the MADRS will also be administered using a since last assessment recall, a 4-hour recall on Day 1 and Day 25 postdose, and a 24-hour recall on Day 2. For the MADRS performed at 4 hours postdose on Days 1 and 25, the MADRS scores for the sleep item recorded predose on the same day will be carried forward.
The primary objective is to compare the efficacy of ESK+SOC to that of PBO+SOC in reducing the symptoms of MDD, including suicidal ideation, as measured by the change from baseline on the MADRS total score at 24 hours post-first dose. […]
Primary efficacy variable/Primary timepoint: Change in MADRS total score from baseline to 24 hours post first dose (Day 2). The MADRS consists of 10 items that cover all of the core depressive symptoms: each item is scored from 0 (symptom is not present or is normal) to 6 (severe or continuous presence of the symptom). A total score (0 to 60) is calculated by summing the scores of all 10 items. […]

Question: For `CN[C@]1(c2ccccc2Cl)CCCCC1=O` [esketamine, (S)-2-(2-chlorophenyl)-2-(methylamino)cyclohexanone], which “Effect size for the primary endpoint (MADRS)” value is on record?
Answer: 0.35

Question: And the “MADRS total score change, least-square mean difference (SE) vs placebo+SOC” value (ANCOVA LOCF)?
Answer: −3.9 (1.39)

Question: And the “MADRS total score, change from baseline to Day 2 (LOCF), mean (SD)” value (esketamine 84 mg+SOC)?
Answer: −15.7 (11.56)
